Assay [1] deals with bovine serum albumin (BSA) (Bos taurus, UniProt P02769). Description: Non-enzymatic glycation of BSA. Format: biochemical. The method, then:
1) Non-Enzymatic Glycation of BSA
This simple test reproduces in vitro a stress to which regular skin proteins are subjected: their functional alteration by a non-enzymatic glycation phenomenon.
The study model used is a bovine serum albumin (BSA), which is contacted with a physiological reducing sugar, the fructose, giving a spontaneous and slow reaction between the two molecules that can be accelerated by temperature. In this test, the BSA and fructose are incubated in the presence or absence of the test products at 50° C. for 7 days. The glycation end products have a natural fluorescence that can be quantified using a fluorimeter (λex=360 nm and λem=460 nm). 0.03% Aminoguanidine is used as a positive control of glycation inhibition.
The anti-glycation effect of the extract of Globularia cordifolia was studied using a protein model, BSA and a natural reducing sugar, fructose which glycates, i.e. binds, to the protein in a non-enzymatic manner. The product of this binding is fluorescent and is monitored with a recording system.

The next assay can be described thus: DPPH anti-radical test. Format: biochemical. As to conditions: positive control, 0003% of caffeic acid. An excerpt:
2) DPPH Anti-Radical Test The DPPH (1, 1-diphenyl-2-picryl hydrazyl) is a stable free radical which is widely used for the detection of free radical scavengers. This molecule by losing its radical character is converted to DPPH2 (1, 1-diphenyl-2-picryl hydrazine). This conversion is accompanied by discoloration (purple→yellow) which can be monitored over time by spectrophotometry at 517 nm.
In general terms: The DPPH test is a chemical assay of radical scavenging.

Assay [2] in a line: Anti-singlet-oxygen test (Rose Bengal, visible light, uric acid destruction). As to conditions: positive control, caffeic acid at 0002%. Format: biochemical. An excerpt:
Molecular oxygen (O2) plays a vital role as an acceptor of the respiratory chain terminal electrons. However, this metabolism and others, as well as external factors, such as UV radiations, lead to the occurrence of certain derivatives particularly reactive (singlet oxygen, hydroxyl radical, superoxide anion), which will cause oxidative damage to lipids, proteins and nucleic acids, even in healthy bodies. Singlet oxygen is one of these very energetic and highly reactive forms of oxygen. It is possible to produce experimentally in vitro singlet oxygen with dyes and UVA photons or visible light. The test presented thereafter uses the Rose Bengal, a dye and visible light. The purpose of this test is to evaluate the degradation of uric acid by singlet oxygen formed from the Rose Bengal, under the action of visible light. The visualization of the production of singlet oxygen is obtained by following the destruction of uric acid at 292 nm. In the presence of a compound capable of neutralizing singlet oxygen, this destruction will be slowed. The caffeic acid at 0002% is used as a positive control of an anti-singlet-oxygen activity Data in Table 3 below.

The test system of another assay is Glutathion. Description: Glutathion synthesis in keratinocytes. Format: cell-based. As to conditions: Trolox at 0.012%.
Assay [3] relates to SOD (superoxide dismutase). Description: Intracellular SOD activity in human keratinocytes treated with hydrogen peroxide. Format: cell-based. As to conditions: Trolox at 0.012%. An excerpt: A preliminary test on the antioxidant skin potential had shown that human keratinocytes treated with the hydrogen peroxide, a model of oxidative stress, increased their intracellular activity of SOD (superoxide dismutase) by 22%*(p<0.01) compared to the negative control in the presence of the Globularia cordifolia extract.

The test system of a further assay is creatine kinase. Description: Residual intracellular creatine kinase activity in human dermal fibroblasts after H2O2 stress. Format: cell-based. As to conditions: Trolox at 500 μm. An excerpt:
Creatine kinase is a ubiquitous enzyme which exists in two isoforms in the skin. It is used to store energy in cells and enables tissues to respond to urgent energy requirements. This enzyme converts creatine into phosphocreatine using ATP which is converted back to ADP. When necessary, the enzyme works in the reverse direction and returns energy. Its activity falls with age as it is one of the preferred targets of reactive oxygen groups. Maintaining and increasing the activity of this enzyme is therefore desirable. Human dermal fibroblasts were placed in contact with the Globularia cordifolia extract according to the invention for 3 days. The cells were then exposed without said extract to an oxidative stress (hydrogen peroxide). After a further 3 days' contact with the Globularia cordifolia extract, the cells were again exposed to the same oxidative stress before being homogenized to measure residual intracellular creatine kinase activity. Activity was measured from the production of ATP from phosphocreatine and ADP. ATP is then measured from an enzymatic reaction leading to the formation of NADPH, readed at 340 nm. Results were standardized by measuring total protein (BCA).

The test system of another assay is sirtuin-1. Description: Intracellular sirtuin-1 in human keratinocytes (ELISA). Format: cell-based. The settings on record: Trolox at 500 μm. An excerpt: Hormetic effects such as calorie restriction or contact with hormetic molecules increase sirtuin enzymes and the lifespan of different organisms. The sirtuins act particularly on FOXO factor deacetylation and prevent triggering of the production of apoptotic proteins. The sirtuins also stimulate cellular anti-oxidant defenses and purification mechanisms (detoxification) and help to preserve mitochondrial function and therefore energy production. This increases survival and resistance to stresses. Human keratinocytes were cultured in the presence or absence of the Globularia cordifolia extract for 6 days and were then grinded and the intracellular levels of sirtuin-1 were measured using an ELISA method. Results were standardized by parallel measurement of total protein (BCA).
For orientation: An ELISA detects its analyte on a solid surface through an enzyme-linked reagent.

In a further assay the test system is intracellular peroxide. Put plainly: Endogenous peroxides in human keratinocytes (DCFH-DA probe). Format: cell-based. The settings on record: Trolox at 500 μm. The method, then:
This factor can be measured reliably using a probe called DCFH-DA, whose characteristic is to fluoresce in contact with peroxides once it entered the cell. Confluence human keratinocytes were placed in contact or not (negative control) for 24 h with the Globularia cordifolia extract until they grew to confluence. The cells were then exposed to and metabolized the DCFH label in a buffer. The label can then react with both intracellular peroxides. The medium was then replaced with one containing or not the Globularia cordifolia extract and the oxidizing agent model hydrogen peroxide (neither the medium nor the Globularia cordifolia extract reacts directly with H2O2). Fluorescence was read in order to estimate the level of the intracellular peroxide which had reacted with the label. The number of cells was quantified using a nuclear labeling method (Hoechst 33258).

The subject of assay [4] is mitochondrial membrane potential. Put plainly: Mitochondrial membrane potential in fibroblasts after H2O2 stress. The format is cell-based, human. As to conditions: Trolox at 500 μm. As to the method: Human dermal fibroblasts were placed in contact with the Globularia cordifolia extract according to the invention for 3 days. The cells were then exposed without said extract to an oxidative stress (hydrogen peroxide). After a further 3 days' contact with the Globularia cordifolia extract, the cells were again exposed to the same oxidative stress before being homogenized to measure residual intracellular creatine kinase activity. Activity was measured from the production of ATP from phosphocreatine and ADP. ATP is then measured from an enzymatic reaction leading to the formation of NADPH, readed at 340 nm. Results were standardized by measuring total protein (BCA). A fall in this membrane potential is a warning sign of ageing and cell death and it is therefore essential that this be maintained to preserve the mitochondrial ability to produce ATP. Membrane potential was measured using a specific label sensitive to mitochondrial proton micro-variations. The label exists in two forms, monomeric and polymeric, which have different emission spectra. A high membrane potential promotes the polymeric form. An increase in the monomer/polymer ratio (520 nm/590 nm) produces therefore a fall in Δψ. A high ratio is therefore less conducive to cell survival than a lower ratio. The same fibroblast cultures than used for creatine kinase there above were used.

The test system of a further assay is proteasome. Put plainly: Residual proteasome activity in human dermal fibroblasts after H2O2 stress. Format: cell-based. The settings on record: Trolox 500 μm. An excerpt: Human dermal fibroblasts were placed or not (negative control) in contact with the Globularia cordifolia extract until they grew to confluence. The Globularia cordifolia extract was then removed and the cells were exposed to the oxidant model, hydrogen peroxide, to produce accelerated ageing. After this stage, the cells were again exposed to the Globularia cordifolia extract for 3 days and then were reseeded and subjected to a further oxidative stress to amplify the effect of the initial stress. The cells were then homogenized and the residual proteasome activity measured by monitoring cleavage of a model fluorescent peptide. Results were standardized by parallel measurement of protein.

SMILES strings stand for the structures.

Chain of bovine serum albumin (BSA) (P02769 25-607): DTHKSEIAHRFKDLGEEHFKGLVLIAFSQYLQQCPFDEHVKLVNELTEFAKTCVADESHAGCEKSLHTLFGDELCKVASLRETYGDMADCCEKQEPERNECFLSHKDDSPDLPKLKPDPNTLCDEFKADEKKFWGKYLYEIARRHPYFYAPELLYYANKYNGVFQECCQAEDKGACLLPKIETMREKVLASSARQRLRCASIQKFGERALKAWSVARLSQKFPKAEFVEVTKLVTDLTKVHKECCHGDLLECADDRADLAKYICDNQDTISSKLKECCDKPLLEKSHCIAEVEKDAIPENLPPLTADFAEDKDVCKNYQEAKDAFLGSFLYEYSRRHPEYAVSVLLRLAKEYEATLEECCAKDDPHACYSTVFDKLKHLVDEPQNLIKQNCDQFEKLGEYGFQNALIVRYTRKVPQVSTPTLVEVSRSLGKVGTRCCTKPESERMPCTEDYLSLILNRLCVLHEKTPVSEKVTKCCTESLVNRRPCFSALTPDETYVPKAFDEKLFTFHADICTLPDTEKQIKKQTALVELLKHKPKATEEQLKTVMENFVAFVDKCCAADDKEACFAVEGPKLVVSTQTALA

For the molecule `N=C(N)NN` [Aminoguanidine], the “Glycation % Change, positive control” value in [1] (aminoguanidine at 0.03%) is listed as “Positive control aminoguanidine at 0.03%: −85%; p < 0.01”. Besides, the glycation inhibition versus the control in assay [1] (positive control, 0.03% Aminoguanidine) stood at 85%.

Take `O=C(O)/C=C/c1ccc(O)c(O)c1` [caffeic acid]: the “anti-radical activity versus the control” value in the assay “DPPH anti-radical test” is on record as −85%. Further, in assay [2], the “anti-singlet-oxygen activity versus the control” value is listed as “+73%”.

Regarding `Cc1c(C)c2c(c(C)c1O)CCC(C)(C(=O)O)O2` (centres unmarked) [Trolox], the “GSH, positive control” value with Glutathion worked out at 53%. The “SOD, positive control” value in assay [3] stood at 21%. The “Creatin kinase activity % Change, positive control” value in the assay on creatine kinase is “Positive control Trolox at 500 μm: +28%; p < 0.05”. In addition, the “Sirtuin-1 % Change, positive control” value with sirtuin-1 is “Positive control Trolox at 500 μm: +27%; p < 0.05”. Besides, the “Intracellular peroxide % Change, positive control” value with intracellular peroxide is listed as “Positive control Trolox at 500 μm: −91%; (p < 0.01)”. Also, the “Mitochondrial membrane potential % Change, positive control” value in assay [4] is given as “Positive control Trolox at 500 μm: +36%; p < 0.05”. Moreover, the “proteasome activity % Change, positive control” value in the assay with proteasome is “Positive control Trolox 500 μm: +24%; (p < 0.05)”.
